# Experimental data from patent US20150344540A1, “NOVEL GLP-1 RECEPTOR AGONISTS WITH CHOLESTEROL EFFLUX ACTIVITY” (NOVO NORDISK A/S, priority 2012, published 2015).
# Read-outs that look alike come from different tables or passages of the source. Where a SMILES comes first, the peptide text is derived from it. Where no end group is shown, it is not given here. [ ]: non-standard residue; d: D form. Aib = CC(C)(N)C(=O)O
# B1: [Aib8,Glu23,Val25,Arg26,Glu34,Arg35,Aib36,Arg37]-GLP-1-(7-37)-peptidyl-Glu-Phe-Leu amide (peptide)
# peptide: H[Aib]EGTFTSDVSSYLEGEAVREFIAWLVER[Aib]REFL-NH2
# modifications: N-terminus assumed
# SMILES: CC[C@H](C)[C@H](NC(=O)[C@H](Cc1ccccc1)NC(=O)[C@H](CCC(=O)O)NC(=O)[C@H](CCCNC(=N)N)NC(=O)[C@@H](NC(=O)[C@H](C)NC(=O)[C@H](CCC(=O)O)NC(=O)CNC(=O)[C@H](CCC(=O)O)NC(=O)[C@H](CC(C)C)NC(=O)[C@H](Cc1ccc(O)cc1)NC(=O)[C@H](CO)NC(=O)[C@H](CO)NC(=O)[C@@H](NC(=O)[C@H](CC(=O)O)NC(=O)[C@H](CO)NC(=O)[C@@H](NC(=O)[C@H](Cc1ccccc1)NC(=O)[C@@H](NC(=O)CNC(=O)[C@H](CCC(=O)O)NC(=O)C(C)(C)NC(=O)[C@@H](N)Cc1c[nH]cn1)[C@@H](C)O)[C@@H](C)O)C(C)C)C(C)C)C(=O)N[C@@H](C)C(=O)N[C@@H](Cc1c[nH]c2ccccc12)C(=O)N[C@@H](CC(C)C)C(=O)N[C@H](C(=O)N[C@@H](CCC(=O)O)C(=O)N[C@@H](CCCNC(=N)N)C(=O)NC(C)(C)C(=O)N[C@@H](CCCNC(=N)N)C(=O)N[C@@H](CCC(=O)O)C(=O)N[C@@H](Cc1ccccc1)C(=O)N[C@@H](CC(C)C)C(N)=O)C(C)C
# B2: [Asn14,Met16,Thr17,Asn18,Glu23,Val25,Glu34,Lys35,Aib36,Lys37]-GLP-1-(7-37)-peptidyl-Glu-Phe-Leu amide (peptide)
# peptide: HAEGTFTNDMTNYLEGEAVKEFIAWLVEK[Aib]KEFL-NH2
# modifications: N-terminus assumed
# SMILES: CC[C@H](C)[C@H](NC(=O)[C@H](Cc1ccccc1)NC(=O)[C@H](CCC(=O)O)NC(=O)[C@H](CCCCN)NC(=O)[C@@H](NC(=O)[C@H](C)NC(=O)[C@H](CCC(=O)O)NC(=O)CNC(=O)[C@H](CCC(=O)O)NC(=O)[C@H](CC(C)C)NC(=O)[C@H](Cc1ccc(O)cc1)NC(=O)[C@H](CC(N)=O)NC(=O)[C@@H](NC(=O)[C@H](CCSC)NC(=O)[C@H](CC(=O)O)NC(=O)[C@H](CC(N)=O)NC(=O)[C@@H](NC(=O)[C@H](Cc1ccccc1)NC(=O)[C@@H](NC(=O)CNC(=O)[C@H](CCC(=O)O)NC(=O)[C@H](C)NC(=O)[C@@H](N)Cc1c[nH]cn1)[C@@H](C)O)[C@@H](C)O)[C@@H](C)O)C(C)C)C(=O)N[C@@H](C)C(=O)N[C@@H](Cc1c[nH]c2ccccc12)C(=O)N[C@@H](CC(C)C)C(=O)N[C@H](C(=O)N[C@@H](CCC(=O)O)C(=O)N[C@@H](CCCCN)C(=O)NC(C)(C)C(=O)N[C@@H](CCCCN)C(=O)N[C@@H](CCC(=O)O)C(=O)N[C@@H](Cc1ccccc1)C(=O)N[C@@H](CC(C)C)C(N)=O)C(C)C
# B3: [Aib8,Glu34,Lys35,Aib36,Lys37]-GLP-1-(7-37)-peptidyl-Glu-Phe-Leu amide (peptide)
# peptide: H[Aib]EGTFTSDVSSYLEGQAAKEFIAWLVEK[Aib]KEFL-NH2
# modifications: N-terminus assumed
# SMILES: CC[C@H](C)[C@H](NC(=O)[C@H](Cc1ccccc1)NC(=O)[C@H](CCC(=O)O)NC(=O)[C@H](CCCCN)NC(=O)[C@H](C)NC(=O)[C@H](C)NC(=O)[C@H](CCC(N)=O)NC(=O)CNC(=O)[C@H](CCC(=O)O)NC(=O)[C@H](CC(C)C)NC(=O)[C@H](Cc1ccc(O)cc1)NC(=O)[C@H](CO)NC(=O)[C@H](CO)NC(=O)[C@@H](NC(=O)[C@H](CC(=O)O)NC(=O)[C@H](CO)NC(=O)[C@@H](NC(=O)[C@H](Cc1ccccc1)NC(=O)[C@@H](NC(=O)CNC(=O)[C@H](CCC(=O)O)NC(=O)C(C)(C)NC(=O)[C@@H](N)Cc1c[nH]cn1)[C@@H](C)O)[C@@H](C)O)C(C)C)C(=O)N[C@@H](C)C(=O)N[C@@H](Cc1c[nH]c2ccccc12)C(=O)N[C@@H](CC(C)C)C(=O)N[C@H](C(=O)N[C@@H](CCC(=O)O)C(=O)N[C@@H](CCCCN)C(=O)NC(C)(C)C(=O)N[C@@H](CCCCN)C(=O)N[C@@H](CCC(=O)O)C(=O)N[C@@H](Cc1ccccc1)C(=O)N[C@@H](CC(C)C)C(N)=O)C(C)C
# B4: [Aib8,Glu23,Val25,Glu34,Lys35,Phe36,Lys37]-GLP-1-(7-37)-peptidyl-Glu-Ala-Phe amide (peptide)
# peptide: H[Aib]EGTFTSDVSSYLEGEAVKEFIAWLVEKFKEAF-NH2
# modifications: N-terminus assumed
# SMILES: CC[C@H](C)[C@H](NC(=O)[C@H](Cc1ccccc1)NC(=O)[C@H](CCC(=O)O)NC(=O)[C@H](CCCCN)NC(=O)[C@@H](NC(=O)[C@H](C)NC(=O)[C@H](CCC(=O)O)NC(=O)CNC(=O)[C@H](CCC(=O)O)NC(=O)[C@H](CC(C)C)NC(=O)[C@H](Cc1ccc(O)cc1)NC(=O)[C@H](CO)NC(=O)[C@H](CO)NC(=O)[C@@H](NC(=O)[C@H](CC(=O)O)NC(=O)[C@H](CO)NC(=O)[C@@H](NC(=O)[C@H](Cc1ccccc1)NC(=O)[C@@H](NC(=O)CNC(=O)[C@H](CCC(=O)O)NC(=O)C(C)(C)NC(=O)[C@@H](N)Cc1c[nH]cn1)[C@@H](C)O)[C@@H](C)O)C(C)C)C(C)C)C(=O)N[C@@H](C)C(=O)N[C@@H](Cc1c[nH]c2ccccc12)C(=O)N[C@@H](CC(C)C)C(=O)N[C@H](C(=O)N[C@@H](CCC(=O)O)C(=O)N[C@@H](CCCCN)C(=O)N[C@@H](Cc1ccccc1)C(=O)N[C@@H](CCCCN)C(=O)N[C@@H](CCC(=O)O)C(=O)N[C@@H](C)C(=O)N[C@@H](Cc1ccccc1)C(N)=O)C(C)C
# How the values were obtained:
# human GLP-1 receptor [1] = molecular target: human GLP-1 receptor (Homo sapiens, UniProt P43220); assay: Functional GLP-1 receptor assay, in vitro potency (CRE luciferase; whole cells); assay type: cell-based; conditions: BHK cells expressing human GLP-1 receptor
# human GLP-1 receptor [2] = molecular target: human GLP-1 receptor (human, UniProt P43220); assay: cell-based or functional assay
# [3] = GLP1R CRE luc 1% HSA EC50 Mean Value, 1% HSA
# [4] = 0% HSA, read-out: GLP1R CRE luc 0% HSA EC50 Mean Value
# Sequence of human GLP-1 receptor (Homo sapiens, UniProt P43220) (P43220 24-463): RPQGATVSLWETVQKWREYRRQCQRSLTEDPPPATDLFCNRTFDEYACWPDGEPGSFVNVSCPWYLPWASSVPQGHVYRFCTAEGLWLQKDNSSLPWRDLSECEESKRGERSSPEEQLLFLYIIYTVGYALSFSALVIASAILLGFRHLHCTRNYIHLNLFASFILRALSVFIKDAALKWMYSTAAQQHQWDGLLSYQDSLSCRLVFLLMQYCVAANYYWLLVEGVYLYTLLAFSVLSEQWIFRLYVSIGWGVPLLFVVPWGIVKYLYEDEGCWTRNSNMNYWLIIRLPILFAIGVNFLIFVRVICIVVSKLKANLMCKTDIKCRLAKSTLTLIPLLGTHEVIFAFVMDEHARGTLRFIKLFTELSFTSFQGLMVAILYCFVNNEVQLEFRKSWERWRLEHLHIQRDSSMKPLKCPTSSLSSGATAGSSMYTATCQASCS
Molecule,EC50 (human GLP-1 receptor [1]; [3]) [nM],EC50 (human GLP-1 receptor [1]; [4]) [nM],"CRE luciferase EC50, 0% HSA (human GLP-1 receptor [2]) [nM]","CRE luciferase EC50, 1% HSA (human GLP-1 receptor [2]) [nM]"
"HAEGTFTNDMTNYLEGEAVKEFIAWLVEKGKEFL-NH2 [Compound 27, [Asn14,Met16,Thr17,Asn18,Glu23,Val25,Glu34,Lys35,Gly36,Lys37]-GLP-1-(7-37)-peptidyl-Glu-Phe-Leu amide]",0.028,–,–,–
"HGEGTFTSDVSSYLEEEAVKEFIAWLVEKVKEF-NH2 [Compound 133, [Gly8,Glu22,Glu23,Val25,Glu34,Lys35,Val36,Lys37]-GLP-1-(7-37)-peptidyl-Glu-Phe amide]",–,0.104,–,–
CC[C@H](C)[C@H](NC(=O)[C@H](Cc1ccccc1)NC(=O)[C@H](CCC(=O)O)NC(=O)[C@H](CCCCN)NC(=O)[C@H](C)NC(=O)[C@H](C)NC(=O)[C@H](CCCCN)NC(=O)[C@H](CCC(=O)O)NC(=O)[C@H](CCC(=O)O)NC(=O)[C@H](CC(C)C)NC(=O)[C@H](Cc1ccc(O)cc1)NC(=O)[C@H](CCCCN)NC(=O)[C@H](CO)NC(=O)[C@H](Cc1ccc(O)cc1)NC(=O)[C@H](CC(=O)O)NC(=O)[C@H](CO)NC(=O)[C@@H](NC(=O)[C@H](Cc1ccccc1)NC(=O)[C@@H](NC(=O)CNC(=O)[C@H](CCC(N)=O)NC(=O)[C@H](CO)NC(=O)[C@@H](N)Cc1c[nH]cn1)[C@@H](C)O)[C@@H](C)O)C(=O)N[C@@H](C)C(=O)N[C@@H](Cc1c[nH]c2ccccc12)C(=O)N[C@@H](CC(C)C)C(=O)N[C@@H](CC(C)C)C(=O)N[C@@H](CCC(=O)O)C(=O)N[C@@H](CCCCN)C(=O)NC(C)(C)C(=O)N[C@@H](CCCCN)C(=O)N[C@@H](CCC(=O)O)C(=O)N[C@@H](Cc1ccccc1)C(=O)N[C@@H](CC(C)C)C(N)=O [Compound 57] (H-HSQGTFTSDYSKYLEEKAAKEFIAWLLEK[Aib]KEFL-NH2),0.044,0.086,–,–
HAEGTFTSDVSSYLEGQAAKEFIAWLVEKVHEFL-NH2 [Compound 141],0.03,–,–,–
"HAEGTFTSDVSSYLEGQAAKEFIAWLVEKVKEFY-NH2 [Compound 131, [Glu34,Lys35,Val36,Lys37]-GLP-1-(7-37)-peptidyl-Glu-Phe-Tyr amide]",0.014,0.037,–,–
"HAEGTFTSDVSSYLEEEAVKEFIAWLVEKVKEFL-NH2 [Compound 135, [Glu22,Glu23,Val25,Glu34,Lys35,Val36,Lys37]-GLP-1-(7-37)-peptidyl-Glu-Phe-Leu amide]",0.114,–,–,–
"HAEGTFTSDVSSYLEGQAAKEFIAWLVEKVKEFL-NH2 [Compound 104, [Glu34,Lys35,Val36,Lys37]-GLP-1-(7-37)-peptidyl-Glu-Phe-Leu amide]",0.023,0.116,–,–
"CC[C@H](C)[C@H](NC(=O)[C@H](Cc1ccccc1)NC(=O)[C@H](CCC(=O)O)NC(=O)[C@H](CCCCN)NC(=O)[C@@H](NC(=O)[C@H](C)NC(=O)[C@H](CCC(=O)O)NC(=O)CNC(=O)[C@H](CCC(=O)O)NC(=O)[C@H](Cc1ccc(O)cc1)NC(=O)[C@H](Cc1ccc(O)cc1)NC(=O)[C@H](CO)NC(=O)[C@H](CO)NC(=O)[C@@H](NC(=O)[C@H](CC(=O)O)NC(=O)[C@H](Cc1c[nH]cn1)NC(=O)[C@@H](NC(=O)[C@H](Cc1ccccc1)NC(=O)[C@@H](NC(=O)CNC(=O)[C@H](CCC(=O)O)NC(=O)[C@H](C)NC(=O)[C@@H](N)Cc1c[nH]cn1)[C@@H](C)O)[C@@H](C)O)C(C)C)C(C)C)C(=O)N[C@@H](C)C(=O)N[C@@H](Cc1c[nH]c2ccccc12)C(=O)N[C@@H](CC(C)C)C(=O)N[C@H](C(=O)N[C@@H](CCC(=O)O)C(=O)N[C@@H](CCCCN)C(=O)NC(C)(C)C(=O)N[C@@H](CCCCN)C(=O)N[C@@H](CCC(=O)O)C(=O)N[C@@H](Cc1ccccc1)C(=O)N[C@@H](CC(C)C)C(N)=O)C(C)C [Compound 15, [His4,Tyr20,Glu23,Val25,Glu34,Lys35,Aib36,Lys37]-GLP-1-(7-37)-peptidyl-Glu-Phe-Leu amide] (H-HAEGTFTHDVSSYYEGEAVKEFIAWLVEK[Aib]KEFL-NH2; N-terminus assumed)",0.101,–,–,–
CC(C)C[C@H](NC(=O)[C@H](Cc1ccccc1)NC(=O)[C@H](CCC(=O)O)NC(=O)[C@H](CCCCN)NC(=O)C(C)(C)NC(=O)[C@H](CCCCN)NC(=O)[C@H](CCC(=O)O)NC(=O)[C@H](CC(C)C)NC(=O)[C@H](CC(C)C)NC(=O)[C@H](Cc1c[nH]c2ccccc12)NC(=O)[C@H](CCC(N)=O)NC(=O)[C@@H](NC(=O)[C@H](Cc1ccccc1)NC(=O)[C@H](CCC(=O)O)NC(=O)[C@H](CCCNC(=N)N)NC(=O)[C@H](C)NC(=O)[C@H](C)NC(=O)[C@H](CCCCN)NC(=O)[C@H](CO)NC(=O)[C@H](CC(=O)O)NC(=O)[C@H](CC(C)C)NC(=O)[C@H](Cc1ccc(O)cc1)NC(=O)[C@H](CCCCN)NC(=O)[C@H](CO)NC(=O)[C@H](Cc1ccc(O)cc1)NC(=O)[C@H](CC(=O)O)NC(=O)[C@H](CO)NC(=O)[C@@H](NC(=O)[C@H](Cc1ccccc1)NC(=O)[C@@H](NC(=O)CNC(=O)[C@H](CCC(N)=O)NC(=O)[C@H](CO)NC(=O)[C@@H](N)Cc1c[nH]cn1)[C@@H](C)O)[C@@H](C)O)C(C)C)C(N)=O [Compound 59] (H-HSQGTFTSDYSKYLDSKAAREFVQWLLEK[Aib]KEFL-NH2),0.198,0.434,–,–
B1,–,–,0.086,0.041
B2,–,–,0.186,0.077
B3,–,–,0.108,0.042
B4,–,–,0.372,0.115
